Results from paper PMC4641600, “Novel Activities of Select NSAID R-Enantiomers against Rac1 and Cdc42 GTPases” (PLoS ONE, 2015).

Tests used:
Cdc42 [1] = molecular target: T1, Cdc42 (Mus musculus, UniProt P60766); assay: GLISA, Swiss 3T3 cells; format: cell-based; conditions: Swiss-3T3; at 300 µM
T1 construct: endogenous in cells; host or cells: Swiss 3T3

human COX-2 = molecular target: T2, human COX-2 (Homo sapiens, UniProt P35354); assay: Cyclooxygenase assay (CEREP), PGE2 formation; format: biochemical; conditions: recombinant enzyme, 4 μM arachidonic acid
T2 construct: purchased CEREP Laboratories (contract assay); host or cells: Sf-9
T2 sequence (P35354 18-604): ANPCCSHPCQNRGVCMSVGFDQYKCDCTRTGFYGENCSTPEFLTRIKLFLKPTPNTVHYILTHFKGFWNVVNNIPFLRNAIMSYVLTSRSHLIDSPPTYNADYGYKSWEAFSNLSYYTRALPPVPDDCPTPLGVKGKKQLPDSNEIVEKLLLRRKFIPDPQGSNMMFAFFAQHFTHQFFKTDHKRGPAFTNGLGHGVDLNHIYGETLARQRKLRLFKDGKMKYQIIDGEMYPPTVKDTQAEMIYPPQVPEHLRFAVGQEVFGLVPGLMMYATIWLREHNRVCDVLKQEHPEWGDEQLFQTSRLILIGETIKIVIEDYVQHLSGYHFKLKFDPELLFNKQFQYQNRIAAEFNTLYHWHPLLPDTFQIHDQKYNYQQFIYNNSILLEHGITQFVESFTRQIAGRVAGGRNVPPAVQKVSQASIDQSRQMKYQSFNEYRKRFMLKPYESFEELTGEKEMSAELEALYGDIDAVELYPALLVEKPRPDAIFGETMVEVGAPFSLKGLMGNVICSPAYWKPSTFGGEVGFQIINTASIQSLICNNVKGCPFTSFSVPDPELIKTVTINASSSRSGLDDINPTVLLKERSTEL

H-Ras wt = H-Ras wt (Homo sapiens, UniProt P01112); assay: Dose response, BODIPY-GTP binding; conditions: 10 nM to 100 µM
Chain of H-Ras wt (P01112 whole entry): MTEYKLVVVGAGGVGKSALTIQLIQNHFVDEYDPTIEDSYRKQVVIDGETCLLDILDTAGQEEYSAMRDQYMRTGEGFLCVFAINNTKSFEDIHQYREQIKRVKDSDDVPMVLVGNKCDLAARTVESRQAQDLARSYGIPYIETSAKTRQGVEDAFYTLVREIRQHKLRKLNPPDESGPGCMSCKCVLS
Method: For multiplex analyses of small GTPases, 4 μm diameter glutathione-beads (GSH-beads) distinguished by seven different intensities of red fluorescence were used according to our previously described protocols. The GST-GTPases included the following eight Ras-related small GTPases: Rab2 wt, Rab7 wt, Cdc42 wt, Cdc42Q61L activating mutant, H-Ras wt, H-RasG12V, Rac1 wt and Rac1Q61L activating mutant. Briefly, Prestwick Chemical Library® compounds were tested at 10 μM compound and 1% DMSO final concentrations. After a 10 min pre-incubation with the compound BODIPY- FL-GTP (100 nM final) was added to each well and bead associated fluorescence was measured. Sample analysis was conducted with a HyperCyt® high throughput flow cytometry platform. Flow cytometric light scatter at 488 nm and fluorescence emission at 530 +/− 20 nm (FL1) and 665 +/− 10 nm (FL8) were collected on a Cyan ADP flow cytometer (Beckman Coulter, Fullerton, CA). IDLQuery software was used to determine the compound activity in each well. Gating based on forward scatter (FS) and side scatter (SS) parameters was used to identify singlet bead populations. Gating based on FL8 emission distinguishes the beads coated with different proteins, and the median FL1 fluorescence per bead population were calculated. A compound was considered a “potential active” if the change in BODIPY-FL-GTP binding differed greater than 20% from that measured in DMSO treated controls.
Test compounds identified for follow-up after the primary screen were tested at dilutions ranging from 10 nM to 100 μM final concentration against individual GTPases in multiplex and single-plex assays. Compounds tested in dose response assays were serially diluted 1:3 a total of eight times from a starting concentration of 10 mM giving a 9-point dilution series in DMSO.
bConfirmatory screens entailed dose response assays conducted in a multiplex format with eight GTPases tested as for primary screen. BODIPY-GTP-binding activity was
measured in the presence of 10 nM to 100 µM of each of 11 test compounds (4 primary screen hits and 7 additional NSAIDs considered to have chemical similarity to GTPase
active compounds). GST-GFP coated beads served as a control to detect non-specific dissociation or denaturation caused by compound addition–none of the tested NSAIDs had
any effect on bead-GST-protein binding. EC50 values were determined using Prism to determine dose response fits as shown in Figure 1 of main text; fits have R2 > 0.9. Active
compounds based on same definition used as in primary screena. […]

[2] = test system: OvCa429 and OvCa433 cells; assay: Boyden chamber cell migration assay; format: cell-based, human; conditions: Homo sapiens; estimated from limited dose response data; read-out: IC50 migration Rac1/Cdc42 dependent (est)
Cdc42 [3] = molecular target: T3, Cdc42 (Homo sapiens, UniProt P60953); assay: G-trap flow cytometric effector binding assay, HeLa cells; format: cell-based
T3 construct: endogenous in cells; host or cells: HeLa
T3 sequence (P60953 whole entry): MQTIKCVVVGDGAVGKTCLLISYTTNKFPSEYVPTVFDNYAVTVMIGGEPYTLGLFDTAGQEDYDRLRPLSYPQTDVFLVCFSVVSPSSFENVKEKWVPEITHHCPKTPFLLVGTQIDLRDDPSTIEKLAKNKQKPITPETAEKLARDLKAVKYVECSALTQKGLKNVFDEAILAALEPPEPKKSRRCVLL

[4] = typical oral dosing (S-Naproxen 500 mg; 6-MNA 750-20000 mg of nabumetone); ref Roche Investigator’s brochure, 9, 10, 17-19, 21, 23; cited from earlier work
[5] = test system: Rac1 and Tiam1 protein levels; assay: Immunoblot of protein levels; format: cell-based, human
Method: Cells were stimulated with EGF at a final concentration of 1 nM for 10 min. Cells were lysed in a RIPA buffer consisting of 50 mM Tris pH 7.4, 1% NP-40, 0.25% sodium deoxycholate, 150 mM NaCl, 1 mM EDTA, 1 mM PMSF, 1 mM sodium vanadate, 10 mM sodium fluoride, 1 μg/mL each of pepstatin, aprotinin and leupeptin, 10 mM sodium pyrophosphate and 10 mM beta-glycerophosphate.
N = 3. See also Figure D in S1 File for time dependent loss of Rac1 membrane localization. N = 3 (B) Quantification of image intensity using Image J of 3 representative confocal images as shown in panel (A) containing 20–30 cells/field normalized to actin and untreated controls. (C) Western blot analyses of lysates from cells treated with 300 μM compound as indicated for 24 h as compared to untreated controls. […] Blots were probed for Tiam1 (200 kDa), GAPDH (37 kDa), Rac1 (20 kDa), as a loading control. (D) Quantification of image intensity using Image J. Each marker was normalized to GAPDH and untreated controls. N = 3.

Rac1 [6] = molecular target: T4, Rac1 (Mus musculus, UniProt P63001); assay: GLISA, Swiss 3T3 cells; format: cell-based
T4 construct: endogenous in cells; host or cells: Swiss 3T3

[7] = molecular target: Cdc42Q61L activating mutant (Homo sapiens, UniProt P60953, Q61L); assay: Dose response, BODIPY-GTP binding
Chain of Cdc42Q61L activating mutant (P60953 whole entry Q61L): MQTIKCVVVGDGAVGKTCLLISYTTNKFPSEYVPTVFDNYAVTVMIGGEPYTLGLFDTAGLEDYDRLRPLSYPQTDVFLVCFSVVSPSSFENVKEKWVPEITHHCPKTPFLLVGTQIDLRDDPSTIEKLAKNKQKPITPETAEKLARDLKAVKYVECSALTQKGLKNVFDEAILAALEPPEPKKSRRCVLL

Rac1 [8] = molecular target: T5, Rac1 (Homo sapiens, UniProt P63000); assay: GLISA, OvCa433 cells; format: cell-based; conditions: 300 μM, 1 h pretreatment, 10 ng/ml EGF 2 min
T5 construct: endogenous in cells; host or cells: HeLa

T1 sequence (P60766 whole entry): as the sequence (P60953 whole entry) above

inhibition at 300 µM (Cdc42 [1]): 0% | IC50 (human COX-2): > 100 µM | H-Ras wt EC50 (H-Ras wt): inactive | IC50 [2]: > 300 µM | fold lower potency than R-naproxen, Cdc42 (Cdc42 [3]): 3 fold | EGF-mediated Rac1 activation (Rac1 [6]; 300 μM, 15 min or 1 h (either time point)): no inhibitory effect | inhibition at 300 µM (Rac1 [6]; Swiss-3T3, at 300 µM): 0% | activity against the constitutively active Cdc42 mutant [7]: weak activity | EC50 ([7]; 10 nM to 100 µM, read-out: Cdc42 (act) EC50): 12.3 µM | Rac1 activation by EGF (Rac1 [8]): no or limited effect
Structure (SMILES): COc1ccc2cc(CC(=O)O)ccc2c1 [6-MNA, 6-methoxy-2-napthalene acetic acid]
Serum Cmax [4]: 41200 ng/mL | total Rac1 or Tiam1 protein levels ([5]; 300 μM, 24 h, immunoblot): did not alter | Rac protein expression ([5]; immunoblot analysis): No change
